# Earlier results as cited in patent US20070202158A1, “Methods Of Administering Water-Soluble Prodrugs Of Propofol For Extended Sedation” (MGI GP, Inc., priority 2003, published 2007).
# Tested on: patients
# Conditions: anesthetic induction doses; cited from earlier work
compound,measurement,value
"CC(C)c1cccc(C(C)C)c1O [propofol, 2,6-diisopropylphenol]","patients with respiratory consequences, including reduction in tidal volume and apnea",up to 83%
